Measured values reported in article PMC3425516 (PLoS ONE, 2012).

Columns and labels:
Assay in all cases: NCI-60 cell lines screening
Assay type in all cases: cell-based, human
MOLT-4 = details: MOLT-4, Leukemia panel
Experimental: (§1) The NCI-60 cancer cell lines screening was conducted by the NCI’s Developmental Therapeutics Program (DTP; http://www.dtp.nci.nih.gov/branches/btb/ivclsp.html).

MDA-MB-435 = details: MDA-MB-435, Melanoma panel
Experimental: as §1

SK-MEL-2 = details: SK-MEL-2, Melanoma panel
Experimental: as §1

MALME-3M = details: Melanoma panel
Experimental: as §1

SF-539 = details: SF-539, CNS Cancer panel
Experimental: as §1

OVCAR-5 = details: OVCAR-5, Ovarian Cancer panel
Experimental: as §1

NCI-H23 = details: NCI-H23, Non-Small Cell Lung Cancer panel
Experimental: as §1

HCT-15 = details: HCT-15, Colon Cancer panel
Experimental: as §1

RPMI-8226 = details: RPMI-8226, Leukemia panel
Experimental: as §1

UACC-62 = details: UACC-62, Melanoma panel
Experimental: as §1

MCF-7 = details: MCF-7, Breast Cancer panel
Experimental: as §1

SNB-19 = details: SNB-19, CNS Cancer panel
Experimental: as §1

KM12 = details: KM12, Colon Cancer panel
Experimental: as §1

ACHN = details: Renal Cancer panel
Experimental: as §1

SW-620 = details: SW-620, Colon Cancer panel
Experimental: as §1

DU-145 = details: DU-145, Prostate Cancer panel
Experimental: as §1

NCI/ADR-RES = details: Ovarian Cancer panel
Experimental: as §1

CCRF-CEM = details: Leukemia panel
Experimental: as §1

PC-3 = details: PC-3, Prostate Cancer panel
Experimental: as §1

NCI-H522 = details: NCI-H522, Non-Small Cell Lung Cancer panel
Experimental: as §1

UO-31 = details: UO-31, Renal Cancer panel
Experimental: as §1

OVCAR-3 = details: OVCAR-3, Ovarian Cancer panel
Experimental: as §1

T-47D = details: Breast Cancer panel
Experimental: as §1

SR = details: Leukemia panel
Experimental: as §1

SF-295 = details: SF-295, CNS Cancer panel
Experimental: as §1

MDA-MB-468 = details: MDA-MB-468, Breast Cancer panel
Experimental: as §1

K-562 = details: K-562, Leukemia panel
Experimental: as §1

SK-OV-3 = details: SK-OV-3, Ovarian Cancer panel
Experimental: as §1

TK-10 = details: TK-10, Renal Cancer panel
Experimental: as §1

[1] = Homo sapiens, read-out: LC50 (the source's name)

Q: With `O=C(C=Cc1ccc2c(c1)CCN2S(=O)(=O)c1ccccc1)NO` [MPT0E028, 3-(1-benzenesulfonyl-2,3-dihydro-1H-indol-5-yl)-N-hydroxy-acrylamide] as the molecule, how does the GI50 (MOLT-4; Homo sapiens) read?
A: Its GI50 is 317 nM.

Q: What about the CC50 (MOLT-4; [1]) of the same molecule?
A: The CC50 was > 100000 nM.

Q: What about the TGI (MOLT-4) of the same molecule?
A: The TGI was >100000 nM.

Q: What about the GI50 (MDA-MB-435; Homo sapiens) of the same molecule?
A: Its GI50 is 146 nM.

Q: What about the CC50 (MDA-MB-435; [1]) of the same molecule?
A: Its CC50 is 11300 nM.

Q: And the TGI (MDA-MB-435)?
A: The TGI was 706 nM.

Q: What about the GI50 (SK-MEL-2; Homo sapiens) of the same molecule?
A: The GI50 was 433 nM.

Q: What about the CC50 (SK-MEL-2; [1]) of the same molecule?
A: The CC50 was 34900 nM.

Q: What about the TGI (SK-MEL-2) of the same molecule?
A: Its TGI is 3890 nM.

Q: And the GI50 (MALME-3M; Homo sapiens)?
A: The GI50 was 37.5 nM.

Q: And the CC50 (MALME-3M; [1])?
A: The CC50 was > 100000 nM.

Q: What about the TGI (MALME-3M) of the same molecule?
A: The TGI was 907 nM.

Q: And the GI50 (SF-539; Homo sapiens)?
A: Its GI50 is 241 nM.

Q: And the CC50 (SF-539; [1])?
A: Its CC50 is 3390 nM.

Q: And the TGI (SF-539)?
A: The TGI was 1150 nM.

Q: And the GI50 (OVCAR-5; Homo sapiens)?
A: Its GI50 is 60.2 nM.

Q: What about the CC50 (OVCAR-5; [1]) of the same molecule?
A: Its CC50 is 2580 nM.

Q: What about the TGI (OVCAR-5) of the same molecule?
A: Its TGI is 316 nM.

Q: What about the GI50 (NCI-H23; Homo sapiens) of the same molecule?
A: Its GI50 is 188 nM.

Q: And the CC50 (NCI-H23; [1])?
A: Its CC50 is 3840 nM.

Q: What about the TGI (NCI-H23) of the same molecule?
A: The TGI was 922 nM.

Q: What about the TGI (HCT-15) of the same molecule?
A: Its TGI is 13100 nM.

Q: And the GI50 (HCT-15; Homo sapiens)?
A: Its GI50 is 430 nM.

Q: What about the CC50 (HCT-15; [1]) of the same molecule?
A: Its CC50 is 90200 nM.

Q: And the GI50 (RPMI-8226; Homo sapiens)?
A: Its GI50 is 81.1 nM.

Q: What about the CC50 (RPMI-8226; [1]) of the same molecule?
A: The CC50 was > 100000 nM.

Q: What about the TGI (RPMI-8226) of the same molecule?
A: Its TGI is >100000 nM.

Q: And the GI50 (UACC-62; Homo sapiens)?
A: The GI50 was 71.6 nM.

Q: What about the TGI (UACC-62) of the same molecule?
A: Its TGI is 339 nM.

Q: And the GI50 (MCF-7; Homo sapiens, MCF7)?
A: Its GI50 is 230 nM.

Q: What about the CC50 (MCF-7; Homo sapiens, MCF7, read-out: LC50 (the source's name)) of the same molecule?
A: Its CC50 is 62700 nM.

Q: What about the TGI (MCF-7) of the same molecule?
A: The TGI was 10500 nM.

Q: And the GI50 (SNB-19; Homo sapiens)?
A: Its GI50 is 434 nM.

Q: And the CC50 (SNB-19; [1])?
A: The CC50 was 5650 nM.

Q: And the TGI (SNB-19)?
A: Its TGI is 1640 nM.

Q: And the GI50 (KM12; Homo sapiens)?
A: The GI50 was 286 nM.

Q: What about the CC50 (KM12; [1]) of the same molecule?
A: Its CC50 is 5780 nM.

Q: And the TGI (KM12)?
A: Its TGI is 1490 nM.

Q: What about the GI50 (ACHN; Homo sapiens) of the same molecule?
A: The GI50 was 167 nM.

Q: What about the CC50 (ACHN; [1]) of the same molecule?
A: The CC50 was 4080 nM.

Q: What about the TGI (ACHN) of the same molecule?
A: The TGI was 576 nM.

Q: What about the GI50 (SW-620; Homo sapiens) of the same molecule?
A: Its GI50 is 147 nM.

Q: What about the CC50 (SW-620; [1]) of the same molecule?
A: Its CC50 is > 100000 nM.

Q: And the TGI (SW-620)?
A: The TGI was 11200 nM.

Q: What about the TGI (DU-145) of the same molecule?
A: The TGI was 1920 nM.

Q: What about the GI50 (DU-145; Homo sapiens) of the same molecule?
A: The GI50 was 179 nM.

Q: What about the CC50 (DU-145; [1]) of the same molecule?
A: The CC50 was > 100000 nM.

Q: What about the GI50 (NCI/ADR-RES; Homo sapiens) of the same molecule?
A: Its GI50 is 38.5 nM.

Q: And the CC50 (NCI/ADR-RES; [1])?
A: The CC50 was > 100000 nM.

Q: What about the TGI (NCI/ADR-RES) of the same molecule?
A: Its TGI is 239 nM.

Q: What about the GI50 (CCRF-CEM; Homo sapiens) of the same molecule?
A: The GI50 was 165 nM.

Q: And the CC50 (CCRF-CEM; [1])?
A: Its CC50 is > 100000 nM.

Q: And the TGI (CCRF-CEM)?
A: Its TGI is >100000 nM.

Q: What about the GI50 (PC-3; Homo sapiens) of the same molecule?
A: Its GI50 is 240 nM.

Q: And the CC50 (PC-3; [1])?
A: The CC50 was > 100000 nM.

Q: And the TGI (PC-3)?
A: The TGI was 21000 nM.

Q: And the GI50 (NCI-H522; Homo sapiens)?
A: The GI50 was 167 nM.

Q: And the CC50 (NCI-H522; [1])?
A: The CC50 was 13000 nM.

Q: And the TGI (NCI-H522)?
A: Its TGI is 845 nM.

Q: What about the GI50 (UO-31; Homo sapiens) of the same molecule?
A: The GI50 was 169 nM.

Q: And the CC50 (UO-31; [1])?
A: The CC50 was 5630 nM.

Q: What about the TGI (UO-31) of the same molecule?
A: The TGI was 1460 nM.

Q: What about the GI50 (OVCAR-3; Homo sapiens) of the same molecule?
A: Its GI50 is 233 nM.

Q: And the CC50 (OVCAR-3; [1])?
A: The CC50 was 7300 nM.

Q: What about the TGI (OVCAR-3) of the same molecule?
A: Its TGI is 933 nM.

Q: And the TGI (T-47D)?
A: The TGI was 445 nM.

Q: And the GI50 (T-47D; Homo sapiens, T47D)?
A: The GI50 was 121 nM.

Q: What about the CC50 (T-47D; Homo sapiens, T47D, read-out: LC50 (the source's name)) of the same molecule?
A: Its CC50 is > 100000 nM.

Q: What about the GI50 (SR; Homo sapiens) of the same molecule?
A: The GI50 was 60.1 nM.

Q: What about the CC50 (SR; [1]) of the same molecule?
A: The CC50 was > 100000 nM.

Q: And the TGI (SR)?
A: The TGI was >100000 nM.

Q: What about the GI50 (SF-295; Homo sapiens) of the same molecule?
A: Its GI50 is 60.3 nM.

Q: And the CC50 (SF-295; [1])?
A: Its CC50 is 2430 nM.

Q: And the TGI (SF-295)?
A: Its TGI is 340 nM.

Q: What about the GI50 (MDA-MB-468; Homo sapiens) of the same molecule?
A: Its GI50 is 196 nM.

Q: What about the CC50 (MDA-MB-468; [1]) of the same molecule?
A: Its CC50 is 6310 nM.

Q: What about the TGI (MDA-MB-468) of the same molecule?
A: Its TGI is 1150 nM.

Q: What about the GI50 (K-562; Homo sapiens, K562) of the same molecule?
A: Its GI50 is 115 nM.

Q: And the CC50 (K-562; Homo sapiens, K562, read-out: LC50 (the source's name))?
A: The CC50 was > 100000 nM.

Q: And the TGI (K-562)?
A: Its TGI is >100000 nM.

Q: What about the GI50 (SK-OV-3; Homo sapiens) of the same molecule?
A: Its GI50 is 190 nM.

Q: And the CC50 (SK-OV-3; [1])?
A: The CC50 was 4260 nM.

Q: And the TGI (SK-OV-3)?
A: Its TGI is 601 nM.

Q: And the GI50 (TK-10; Homo sapiens)?
A: Its GI50 is 103 nM.

Q: And the CC50 (TK-10; [1])?
A: Its CC50 is 33600 nM.

Q: And the TGI (TK-10)?
A: Its TGI is 660 nM.
